Values quoted from earlier work, collected in PMC12181400, “Leveraging viral genome sequences and machine learning models for identification of potentially selective antiviral agents” (Communications Chemistry, 2025).
Structures can show the parent of a compound that is named as a salt. Where two headings read alike, the source gives them in different places.

Assays:
Details in all cases: cited from earlier work
[1] = system: cell viability (tox21-car-antagonist-p1)
[2] = system: cell viability (tox21-ar-mda-kb2-luc-antagonist-p2)
[3] = system: cell viability (tox21-ap1-agonist-p1)
[4] = system: cell viability (tox21-ar-mda-kb2-luc-agonist-p3)
[5] = system: cell viability (tox21-car-agonist-p1)
[6] = system: cell viability (tox21-are-bla-p1)
[7] = curve rank −9 to 9, 0 = inactive, ref NCATS Tox21 public data browser

FC(F)(F)c1ccccc1-n1ccnc1 [1-[2-(Trifluoromethyl)phenyl]-1H-imidazole]
0: tox21-car-antagonist-p1-viability (curve rank) [1, 7] | tox21-ar-mda-kb2-luc-antagonist-p2-viability (curve rank) [2, 7] | tox21-ap1-agonist-p1-viability (curve rank) [3, 7] | tox21-ar-mda-kb2-luc-agonist-p3-viability (curve rank) [4, 7] | tox21-car-agonist-p1-viability (curve rank) [5, 7] | tox21-are-bla-p1-viability (curve rank) [6, 7]

CCCCCC(C)N.O=S(=O)(O)O (centres unmarked) [2-Aminoheptane sulfate]
0: tox21-car-antagonist-p1-viability (curve rank) [1, 7] | tox21-ar-mda-kb2-luc-antagonist-p2-viability (curve rank) [2, 7] | tox21-ap1-agonist-p1-viability (curve rank) [3, 7] | tox21-ar-mda-kb2-luc-agonist-p3-viability (curve rank) [4, 7] | tox21-car-agonist-p1-viability (curve rank) [5, 7] | tox21-are-bla-p1-viability (curve rank) [6, 7]

NC(=O)c1ccc([N+](=O)[O-])cc1Cl [2-Chloro-4-nitrobenzamide]
0: tox21-car-antagonist-p1-viability (curve rank) [1, 7] | tox21-ar-mda-kb2-luc-antagonist-p2-viability (curve rank) [2, 7] | tox21-ap1-agonist-p1-viability (curve rank) [3, 7] | tox21-ar-mda-kb2-luc-agonist-p3-viability (curve rank) [4, 7] | tox21-car-agonist-p1-viability (curve rank) [5, 7] | tox21-are-bla-p1-viability (curve rank) [6, 7]

Cc1cccc(C(=O)O)c1O [2-Hydroxy-3-methylbenzoic acid]
0: tox21-car-antagonist-p1-viability (curve rank) [1] | tox21-ar-mda-kb2-luc-antagonist-p2-viability (curve rank) [2] | tox21-ap1-agonist-p1-viability (curve rank) [3] | tox21-ar-mda-kb2-luc-agonist-p3-viability (curve rank) [4] | tox21-car-agonist-p1-viability (curve rank) [5] | tox21-are-bla-p1-viability (curve rank) [6]

Nc1ccc(C(=O)O)cc1 [4-Aminobenzoic acid]
0: tox21-car-antagonist-p1-viability (curve rank) [1] | tox21-ar-mda-kb2-luc-antagonist-p2-viability (curve rank) [2] | tox21-ap1-agonist-p1-viability (curve rank) [3] | tox21-ar-mda-kb2-luc-agonist-p3-viability (curve rank) [4] | tox21-car-agonist-p1-viability (curve rank) [5] | tox21-are-bla-p1-viability (curve rank) [6]

Cc1cc(O)ccc1Cl [4-Chloro-3-methylphenol]
0: tox21-car-antagonist-p1-viability (curve rank) [1, 7] | tox21-ar-mda-kb2-luc-antagonist-p2-viability (curve rank) [2, 7] | tox21-ap1-agonist-p1-viability (curve rank) [3, 7] | tox21-ar-mda-kb2-luc-agonist-p3-viability (curve rank) [4, 7] | tox21-car-agonist-p1-viability (curve rank) [5, 7] | tox21-are-bla-p1-viability (curve rank) [6, 7]

Oc1ccc(Cl)cc1 [4-Chlorophenol]
0: tox21-car-antagonist-p1-viability (curve rank) [1, 7] | tox21-ar-mda-kb2-luc-antagonist-p2-viability (curve rank) [2, 7] | tox21-ap1-agonist-p1-viability (curve rank) [3, 7] | tox21-ar-mda-kb2-luc-agonist-p3-viability (curve rank) [4, 7] | tox21-car-agonist-p1-viability (curve rank) [5, 7] | tox21-are-bla-p1-viability (curve rank) [6, 7]

CCN(CC)CC1CCCCN1CC(=O)N1c2ccccc2C(=O)Nc2cccnc21 (centres unmarked) [AF-DX 116]
0: tox21-car-antagonist-p1-viability (curve rank) [1] | tox21-ar-mda-kb2-luc-antagonist-p2-viability (curve rank) [2] | tox21-ap1-agonist-p1-viability (curve rank) [3] | tox21-ar-mda-kb2-luc-agonist-p3-viability (curve rank) [4] | tox21-car-agonist-p1-viability (curve rank) [5] | tox21-are-bla-p1-viability (curve rank) [6]

CCCC(=O)Nc1ccc(OCC(O)CNC(C)C)c(C(C)=O)c1 (centres unmarked) [Acebutolol hydrochloride]
0: tox21-car-antagonist-p1-viability (curve rank) [1] | tox21-ar-mda-kb2-luc-antagonist-p2-viability (curve rank) [2] | tox21-ap1-agonist-p1-viability (curve rank) [3] | tox21-ar-mda-kb2-luc-agonist-p3-viability (curve rank) [4] | tox21-car-agonist-p1-viability (curve rank) [5] | tox21-are-bla-p1-viability (curve rank) [6]

CC(=O)Nc1ccccc1 [Acetanilide]
0: tox21-car-antagonist-p1-viability (curve rank) [1] | tox21-ar-mda-kb2-luc-antagonist-p2-viability (curve rank) [2] | tox21-ap1-agonist-p1-viability (curve rank) [3] | tox21-ar-mda-kb2-luc-agonist-p3-viability (curve rank) [4] | tox21-car-agonist-p1-viability (curve rank) [5] | tox21-are-bla-p1-viability (curve rank) [6]

CC(=O)Nc1cc([As](=O)(O)O)ccc1O [Acetarsol]
0: tox21-car-antagonist-p1-viability (curve rank) [1, 7] | tox21-ar-mda-kb2-luc-antagonist-p2-viability (curve rank) [2, 7] | tox21-ap1-agonist-p1-viability (curve rank) [3, 7] | tox21-ar-mda-kb2-luc-agonist-p3-viability (curve rank) [4, 7] | tox21-car-agonist-p1-viability (curve rank) [5, 7] | tox21-are-bla-p1-viability (curve rank) [6, 7]

CCC(C)(CN(C)C)OC(=O)c1ccccc1.Cl (centres unmarked) [Amylocaine hydrochloride]
0: tox21-car-antagonist-p1-viability (curve rank) [1, 7]

CCN(Cc1ccncc1)C(=O)C(CO)c1ccccc1 (centres unmarked) [Tropicamide]
0: tox21-car-antagonist-p1-viability (curve rank) [1, 7] | tox21-ap1-agonist-p1-viability (curve rank) [3, 7] | tox21-car-agonist-p1-viability (curve rank) [5, 7] | tox21-are-bla-p1-viability (curve rank) [6, 7]
